Common to all, as to format: functional
Test [1] relates to NCI-H522. As to the kind of experiment: Tested for in vitro cytotoxic activity against lung H522 human cancer cell lines.
Test [2] concerns SK-OV-3. As to the kind of experiment: Tested for in vitro cytotoxic activity against ovarian SKOV3 human cancer cell lines.
Test [3] has as its system SW-620. As to the kind of experiment: Tested for in vitro cytotoxic activity against colon SW620 human cancer cell lines.
In test [4] the test system is NCI/ADR-RES. As to the kind of experiment: Tested for in vitro cytotoxic activity against breast MCF-7/ADR human cancer cell lines.
The subject of test [5] is DU-145. As to the kind of experiment: Tested for in vitro cytotoxic activity against prostate DU145 human cancer cell lines.
The test system of test [6] is U-251. As to the kind of experiment: Tested for in vitro cytotoxic activity against CNS U251 human cancer cell lines.
The test system of test [7] is A498. As to the kind of experiment: Tested for in vitro cytotoxic activity against renal A498 human cancer cell lines.
Test [8] relates to M14. As to the kind of experiment: Tested for in vitro cytotoxic activity against melanoma M14 human cancer cell lines.

Structures are written as SMILES.

For orientation: GI50 means the concentration giving 50% growth inhibition. The low end stands for more potent growth inhibition, the high end for less potent growth inhibition. With `O=c1c2ccccc2nc2n1-c1ccccc1/C2=N\OCCO`, the GI50 in test [1] stood at 7 µM; in test [2], 20 µM; in test [3] it was 20 µM; in test [4], 0.01 µM; in test [5] it was 3 µM; in test [6] it was 1 µM. In addition, the GI50 is 40 µM in test [7] and 30 µM in test [8].

As to `O=C1c2ccccc2-n2c1nc1ccc(Br)cc1c2=O`, the concentration for 50% growth inhibition (GI50) in test [1], in test [2], in test [3], in test [4], in test [5] and in test [6] was above 100 µM each time. The GI50 in test [7] and in test [8] was above 100 µM throughout.

As for `CC(=O)Nc1ccc2c(c1)C(=O)c1nc3ccccc3c(=O)n1-2`, the GI50 was 5 µM in test [1]; 20 µM in test [2]; 30 µM in test [3]; 0.4 µM in test [4]; 0.5 µM in test [5]; 20 µM in test [6]. Moreover, the 50% growth inhibitory concentration (GI50) in test [7] came out at 0.4 µM; in test [8], 10 µM.

For the compound `CC1(O)c2ccccc2-n2c1nc1ccccc1c2=O` (stereo unspecified), the GI50 in test [1], in test [2], in test [3], in test [4], in test [5] and in test [6] was above 100 µM each time. For the same compound, the GI50 in test [7] and in test [8] was above 100 µM each time.

In the case of `O=C1c2cc([N+](=O)[O-])ccc2-n2c1nc1ccccc1c2=O`, the 50% growth inhibitory concentration (GI50) in test [1] was 4.8 µM; in test [2], 25 µM; in test [3] it was 25 µM; in test [4], 1 µM; in test [5], 8 µM; in test [6] it was 4.5 µM. Moreover, the GI50 in test [7] came to 2 µM; in test [8], 15 µM.

As for `Nc1ccc2c(c1)C(=O)c1nc3ccccc3c(=O)n1-2`, the GI50 was 5 µM in test [1]; 5 µM in test [2]; 4.8 µM in test [3]; 5 µM in test [4]; 2 µM in test [5]; 0.7 µM in test [6]. Moreover, the GI50 in test [7] came to 3 µM; in test [8] it was 5 µM.

As to `O=c1c2ccccc2nc2n1-c1ccccc1/C2=N\OCCCN1CCCC1`, the GI50 in test [1] turned out to be 4 µM; in test [2], 4 µM; in test [3] it was 4.5 µM; in test [4] it was 5 µM; in test [5], 5 µM; in test [6], 6 µM. Further, the figures for the concentration for 50% growth inhibition (GI50) in test [7] and in test [8] were 7 µM and 6 µM, respectively.

As for `COc1cc2nc3n(c(=O)c2cc1OC)-c1ccccc1C3=O`, the concentration for 50% growth inhibition (GI50) in test [1], in test [2], in test [3], in test [4], in test [5] and in test [6] was above 100 µM throughout. Moreover, the GI50 in test [7] and in test [8] was above 100 µM in each case.

Turning to `CN1CCN(CC(=O)Nc2ccc3c(c2)C(=O)c2nc4ccccc4c(=O)n2-3)CC1`, the GI50 was 15 µM in test [1]; 6 µM in test [2]; 10 µM in test [3]; 20 µM in test [4]; 10 µM in test [5]; above 100 µM in test [6]. Also, the concentration for 50% growth inhibition (GI50) in test [7] came out at 20 µM; in test [8] it was 8 µM.

For `CN(C)CCCO/N=C1\c2ccccc2-n2c1nc1ccccc1c2=O`, the GI50 stood at 0.6 µM in test [1]; 2 µM in test [2]; 4 µM in test [3]; 7.5 µM in test [4]; 3.5 µM in test [5]; 0.7 µM in test [6]. The concentration for 50% growth inhibition (GI50) is 4 µM in test [7] and 5 µM in test [8].

Consider `O=C(CCl)Nc1ccc2c(c1)C(=O)c1nc3ccccc3c(=O)n1-2`, for which the GI50 was determined as 4 µM in test [1]; 0.05 µM in test [2]; 0.6 µM in test [3]; 0.06 µM in test [4]; 0.25 µM in test [5]; 0.2 µM in test [6]. The concentration for 50% growth inhibition (GI50) in test [7] stood at 0.4 µM; in test [8] it was 0.9 µM.

Turning to `Cc1ccc2c(c1)C(=O)c1nc3ccccc3c(=O)n1-2`, the 50% growth inhibitory concentration (GI50) is 0.15 µM in test [1]; above 100 µM in test [2]; above 100 µM in test [3]; 0.1 µM in test [4]; above 100 µM in test [5]; 20 µM in test [6]. Moreover, the GI50 in test [7] and in test [8] was 60 µM in each case.

As to `O=C1c2cc3c(cc2-n2c1nc1ccccc1c2=O)OCO3`, the GI50 in test [1], in test [2], in test [3], in test [4], in test [5] and in test [6] was above 100 µM throughout. Further, the GI50 in test [7] and in test [8] was above 100 µM each time.

For the compound `C=CC1(O)c2ccccc2-n2c1nc1ccccc1c2=O` (stereo unspecified), the GI50 was determined as 15 µM in test [1]; 6 µM in test [2]; 10 µM in test [3]; 20 µM in test [4]; 10 µM in test [5]; 12 µM in test [6]. Further, the values for the GI50 in test [7] and in test [8] were 12 µM and 8 µM, respectively.

`O=c1c2ccccc2nc2n1-c1ccc([N+](=O)[O-])cc1/C2=N\OCCO`: the concentration for 50% growth inhibition (GI50) turned out to be 0.7 µM in test [1]; 2 µM in test [2]; 0.75 µM in test [3]; 0.4 µM in test [4]; 2.5 µM in test [5]; 0.8 µM in test [6]. For the same compound, the concentration for 50% growth inhibition (GI50) in test [7] was 0.6 µM; in test [8], 2 µM.

In the case of `O=C1c2cc(Cl)ccc2-n2c1nc1ccccc1c2=O`, the GI50 in test [1], in test [2], in test [3], in test [4], in test [5] and in test [6] was above 100 µM throughout. The GI50 in test [7] and in test [8] was above 100 µM in each case.

Regarding `O=c1c2ccccc2nc2n1-c1ccc(Br)cc1/C2=N\OCCN1CCCCC1`, the GI50 worked out at 2 µM in test [1]; 1 µM in test [2]; 3 µM in test [3]; 0.3 µM in test [4]; 0.55 µM in test [5]; 0.095 µM in test [6]. In addition, the values for the concentration for 50% growth inhibition (GI50) in test [7] and in test [8] were 2 µM and 2.5 µM, respectively.

In the case of `O=Nc1c2ccccc2n2c(O)c3ccccc3nc12`, the concentration for 50% growth inhibition (GI50) is 50 µM in test [1]; 30 µM in test [2]; 8 µM in test [3]; 15 µM in test [4]; 50 µM in test [5]; 15 µM in test [6]. The concentration for 50% growth inhibition (GI50) turned out to be 60 µM in test [7] and 40 µM in test [8].

Regarding `CS(=O)(=O)Nc1ccc2c(c1)C(=O)c1nc3ccccc3c(=O)n1-2`, the GI50 in test [1], in test [2], in test [3], in test [4], in test [5] and in test [6] was above 100 µM in each case. Further, the GI50 in test [7] and in test [8] was above 100 µM each time.

As to `Nc1ccc2nc3n(c(=O)c2c1)-c1ccccc1C3=O`, the concentration for 50% growth inhibition (GI50) in test [1] was determined as 60 µM; in test [2] it was 40 µM; in test [3] it was 60 µM; in test [4], 40 µM; in test [5], 60 µM; in test [6] it was 70 µM. The concentration for 50% growth inhibition (GI50) in test [7] worked out at 80 µM; in test [8], 60 µM.

As to `O=C(CO/N=C1\c2ccccc2-n2c1nc1ccccc1c2=O)Nc1ccccn1`, the 50% growth inhibitory concentration (GI50) in test [1] was 25 µM; in test [2], 52 µM; in test [3], above 100 µM; in test [4], 8 µM; in test [5], 10 µM; in test [6] it was 8.5 µM. Moreover, the figures for the GI50 in test [7] and in test [8] were 20 µM and 95 µM, respectively.

For `CCCCC1(O)c2ccccc2-n2c1nc1ccccc1c2=O` (stereo unspecified), the GI50 in test [1], in test [2], in test [3], in test [4], in test [5] and in test [6] was above 100 µM in each case. For the same compound, the GI50 in test [7] and in test [8] was above 100 µM each time.

With `CN(C)CCO/N=C1\c2cc([N+](=O)[O-])ccc2-n2c1nc1ccccc1c2=O`, the GI50 in test [1] is 9 µM; in test [2], 9 µM; in test [3], 0.75 µM; in test [4], 4 µM; in test [5] it was above 100 µM; in test [6], 7.5 µM. For the same compound, the GI50 was above 100 µM in test [7] and 7.5 µM in test [8].

`COC(=O)CO/N=C1\c2ccccc2-n2c1nc1ccccc1c2=O`: the GI50 in test [1] is 80 µM; in test [2], 50 µM; in test [3] it was above 100 µM; in test [4] it was 0.01 µM; in test [5] it was 30 µM; in test [6], above 100 µM. The GI50 in test [7] is above 100 µM; in test [8], 40 µM.

As for `CN(C)CCO/N=C1\c2cc(Br)ccc2-n2c1nc1ccccc1c2=O`, the GI50 in test [1] came to 2 µM; in test [2], 3 µM; in test [3] it was 3 µM; in test [4], 0.06 µM; in test [5], 0.2 µM; in test [6] it was 0.45 µM. Besides, the GI50 is 1.5 µM in test [7] and 2 µM in test [8].

Turning to `O=C1c2cc(Br)ccc2-n2c1nc1ccccc1c2=O`, the GI50 in test [1] was 0.7 µM; in test [2], 5 µM; in test [3], 0.4 µM; in test [4] it was 0.7 µM; in test [5], 0.15 µM; in test [6], above 100 µM. The results for the 50% growth inhibitory concentration (GI50) in test [7] and in test [8] were 3 µM and 0.8 µM, respectively.

Consider `O=C(/C=C/c1ccccc1)O/N=C1\c2ccccc2-n2c1nc1ccccc1c2=O`, for which the 50% growth inhibitory concentration (GI50) is 45 µM in test [1]; 6 µM in test [2]; 60 µM in test [3]; 7.5 µM in test [4]; above 100 µM in test [5]; 20 µM in test [6]. For the same compound, the values for the concentration for 50% growth inhibition (GI50) in test [7] and in test [8] were 10 µM and 90 µM, respectively.

For the origin of these results see ChEMBL document CHEMBL1134884, “Novel indolo[2,1-b]quinazoline analogues as cytostatic agents: synthesis, biological evaluation and structure-activity relationship” (Bioorg Med Chem Lett, 2002).
